# Like-named read-outs stand apart in the source and are kept apart here. Numbered stars: 1 amine (or outer) side, 2 acyl side, 3 side chain; on linkers, the order of the positions; unused ones are H or OH. Bridge positions count the residues as written; N and C are the ends. Square brackets hold non-standard residues; d marks the D form. Peptide text beside a SMILES is read from it. Bip(4'-Cl) = N[C@@H](Cc1ccc(-c2ccc(Cl)cc2)cc1)C(=O)O; Phe(4-CF3) = N[C@@H](Cc1ccc(C(F)(F)F)cc1)C(=O)O; dPhe(4-CF3) = N[C@H](Cc1ccc(C(F)(F)F)cc1)C(=O)O; Phe(2,4-Cl2) = N[C@@H](Cc1ccc(Cl)cc1Cl)C(=O)O; Bip = N[C@@H](Cc1ccc(-c2ccccc2)cc1)C(=O)O; dBip = N[C@H](Cc1ccc(-c2ccccc2)cc1)C(=O)O; dPhe(4-NH2) = Nc1ccc(C[C@@H](N)C(=O)O)cc1; Phe(4-Br) = N[C@@H](Cc1ccc(Br)cc1)C(=O)O; Phe(4-NH2) = Nc1ccc(C[C@H](N)C(=O)O)cc1; d(hPhe) = N[C@H](CCc1ccccc1)C(=O)O; 2Thi = N[C@@H](Cc1cccs1)C(=O)O; d2Thi = N[C@H](Cc1cccs1)C(=O)O; Suc = O=C(CCC(=O)[*:2])[*:1]; Nphe = O=C(O)CNCc1ccccc1; Ac3c = NC1(C(=O)O)CC1
# Assays:
# [1] = molecular target: T1, TNFα / TNFα receptor (TNFα R1/Fc) (Homo sapiens, UniProt P01375); assay: Inhibition of binding of TNFα to the TNFα receptor (plate ELISA competition); details: Table 2
# T1 construct: purchased R&D Systems
# T1 sequence (P01375 77-233 limits assumed, species assumed): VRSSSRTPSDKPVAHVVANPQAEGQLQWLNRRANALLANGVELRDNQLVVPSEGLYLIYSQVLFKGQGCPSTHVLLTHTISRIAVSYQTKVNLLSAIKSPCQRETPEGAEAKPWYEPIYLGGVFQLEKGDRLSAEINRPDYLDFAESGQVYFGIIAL
# Method in brief: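 Plates were coated with TNFα at 15 nM. Test compound and 8.33 nM receptor-Fc (PBST, 2% DMSO) were first mixed in solution for 30 min at room temperature, then transferred to the plates for another 30 min. Competition was read by absorbance at 450 nm after HRP anti-human IgG Fc detection with TMB.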
# [2] = system: TNF-α (degradation of IkB in HeLa cells or A431 cells); assay: Human cell-based assay: inhibition of TNF-α induced degradation of IkB; details: for inhibition at 5 µM: read-out: Inhibition at Various Compound Concentrations, 5 μM; for inhibition at 10 µM: read-out: Inhibition at Various Compound Concentrations, 10 μM; for inhibition at 25 µM: 25 μM compound, read-out: Inhibition at Various Compound Concentrations, 25 μM
# Method: We used a human cell-based assay to determine the TNF-α antagonistic activity of the compounds of this invention based upon the ability of the compounds to inhibit the degradation of IkB in those cells. The assay was performed on either HeLa cells or A431 cells.
# On Day 1, wells of a 24-well tissue culture plate were seeded with cells that had been harvested from cultures in T-75 flasks by standard trypsin/EDTA treatment. The harvested cells were suspended in EMEM/10% FBS/P/S (100,000 HeLa cells/mL or 200,000 A431 cells/mL) and 1 mL aliquots were placed into each well. The cells were incubated overnight at 37° C. in a humidified CO2 incubator. On day 2, the cells were approximately 95% confluent.
# Test and control compounds were diluted to a 1 mM solution by dilution in DMSO. The assay was run in Costar tubes. Into each tube was placed 2.5 or 5.0 μL of test compound (for testing 5 μM and 10 μM concentrations, respectively), 2.5 μL of 100× TNF-α solution (200 ng/mL TNF-α in EMEM containing 1μg/mL cycloheximide) and, for those tubes containing 2.5 μL of compound, an additional 2.5 μL of DMSO. To each tube was then added 0.5 mL of EMEM containing 1μg/mL cycloheximide. Negative control tubes contained either a) no compound, or b) no TNF-α. Tubes were then incubated for 30 minutes at room temperature.
# Once incubation had begun, the media was aspirated from the cells in the 24-well plates. Sufficient EMEM/10% FBS/P/S containing 1 ug/mL cycloheximide was then added to cover the cells (approximately 3 mL) and the cells were retuned to the 37° C. humidified CO2 incubator until compound incubation was completed. The media was then aspirated from the cells, 0.2 mL of the compound solution was added and the cells re-incubated at 37° C. for 30 minutes. The plates were then placed on ice, the compound solution was aspirated from each well, and the cells washed once with 1 mL of cold PBS. Cells were then fixed with 500 μL of 3.7% formaldehyde in PBS (“fix solution”) for 20 minutes at room temperature. The fix solution was decanted and the cells permeabilized by 4× washing with 500 uL PBS/0.1% Triton X-100. After the final permeabilization wash, the cells were treated with 500 uL of Odyssey blocking buffer (OBB) and incubated at room temperature with shaking for 90 minutes.
# The OBB was decanted and then to each well was then added 125 μL each of mouse anti-IkB CST#4814 (diluted 1:200 in OBB) and rabbit anti-beta-tubulin CST#2146 (diluted 1:200 in OBB). Plates were sealed with parafin and incubated overnight at room temperature with shaking.
# On day 3, the antibody solution was removed from the cells and the cells were washed 5× with 0.5 mL PBST for five minutes each on a shaker. To each well was then aded 125 μL of a secondary antibody solution containing goat anti-mouse IgG-IRDye 800 and goat anti-rabbit IgG-IRDye (each diluted 1:500 in OBB+0.2% Tween 20). The plates were covered with aluminum foil and incubated for 1 hour at room temperature with shaking. The secondary antibody solution was removed and the cells washed 3× with 0.5 mL PBST for five minutes each on a shaker. Cells were then scanned by LICOR with the following settings: 700 intensity=6.0, 800 intensity=6.5; microplate2 settings with 3.0 mm offset; 169 resolution. LICOR values were fitted to an equation for a sigmoidal curve and IC50 values calculated from the fitted parameters. […] Blank cells indicate that the compound was not tested at that concentration. Certain compounds that were tested more than once and the values reflect the average of the multiple tests.
# [3] = read-out: Activity (IC50, inhibition of TNFα binding to TNFα R1/Fc)
# [4] = 5 μM compound, HeLa or A431 cells
# [5] = 10 μM compound, HeLa or A431 cells
SMILES,"IC50 [1, 3] [µM]","inhibition at 5 µM [2, 4] [%]","inhibition at 10 µM [2, 5] [%]",inhibition at 25 µM ([2]; HeLa or A431 cells) [%],"IC50 ([1]; Activity (IC50, inhibition of TNFα binding to TNFα R1/Fc)) [µM]",inhibition at 5 µM [2] [%],inhibition at 10 µM [2] [%]
O=C(O)CN(Cc1ccccc1)C(=O)[C@@H]1Cc2ccc(cc2)NC(=O)CCC(=O)N[C@H](Cc2cccs2)C(=O)N[C@@H](Cc2ccc(-c3ccccc3)cc2)C(=O)N[C@H](Cc2ccccc2)C(=O)N1 [Compound 36] ([d2Thi][Bip][dF][Phe(4-NH2)][Nphe]-OH; linker N-4 via Suc),< 10,10 to 50,50 to 80,< 10,–,–,–
O=C1CCC(=O)N[C@H](Cc2cccs2)C(=O)N[C@@H](Cc2ccc(-c3ccccc3)cc2)C(=O)N[C@H](Cc2ccccc2)C(=O)N[C@H](C(=O)NC2(C(=O)O)CC2)Cc2ccc(cc2)N1 [Compound 39] ([d2Thi][Bip][dF][Phe(4-NH2)][Ac3c]-OH; linker N-4 via Suc),< 10,–,10 to 50,–,–,–,–
O=C1CCC(=O)N[C@@H](Cc2cccs2)C(=O)N[C@@H](Cc2ccc(-c3ccccc3)cc2)C(=O)N[C@H](Cc2ccccc2)C(=O)N[C@H](C(=O)O)Cc2ccc(cc2)N1 [Compound 43] ([2Thi][Bip][dF][Phe(4-NH2)]-OH; linker N-4 via Suc),> 100,–,–,< 10,–,–,–
O=C1CCC(=O)N[C@H](Cc2cccs2)C(=O)N[C@@H](Cc2ccc(-c3ccccc3)cc2)C(=O)N[C@H](CCc2ccccc2)C(=O)N[C@H](C(=O)O)Cc2ccc(cc2)N1 [Compound 47] ([d2Thi][Bip][d(hPhe)][Phe(4-NH2)]-OH; linker N-4 via Suc),< 10,–,< 10,–,–,–,–
"O=C1CCC(=O)N[C@H](Cc2cccs2)C(=O)N[C@@H](Cc2ccc(Cl)cc2Cl)C(=O)N[C@H](Cc2ccccc2)C(=O)N[C@H](C(=O)O)Cc2ccc(cc2)N1 [Compound 82] ([d2Thi][Phe(2,4-Cl2)][dF][Phe(4-NH2)]-OH; linker N-4 via Suc)",10 to 30,< 10,< 10,–,–,–,–
O=C1CCC(=O)N[C@H](Cc2cccs2)C(=O)N[C@@H](Cc2ccc(Br)cc2)C(=O)N[C@H](Cc2ccccc2)C(=O)N[C@H](C(=O)O)Cc2ccc(cc2)N1 [Compound 85] ([d2Thi][Phe(4-Br)][dF][Phe(4-NH2)]-OH; linker N-4 via Suc),10 to 30,–,–,< 10,–,–,–
O=C1CCC(=O)N[C@H](Cc2cccs2)C(=O)N[C@@H](Cc2ccc(C(F)(F)F)cc2)C(=O)N[C@H](Cc2ccccc2)C(=O)N[C@H](C(=O)O)Cc2ccc(cc2)N1 [Compound 89] ([d2Thi][Phe(4-CF3)][dF][Phe(4-NH2)]-OH; linker N-4 via Suc),10 to 30,–,–,< 10,–,–,–
O=C1CCC(=O)N[C@H](CCc2ccccc2)C(=O)N[C@@H](Cc2ccc(Br)cc2)C(=O)N[C@H](Cc2ccccc2)C(=O)N[C@@H](C(=O)O)Cc2ccc(cc2)N1 [Compound 111] ([d(hPhe)][Phe(4-Br)][dF][dPhe(4-NH2)]-OH; linker N-4 via Suc),10 to 30,–,< 10,–,–,–,–
"O=C1CCC(=O)N[C@H](CCc2ccccc2)C(=O)N[C@@H](Cc2ccc(Cl)cc2Cl)C(=O)N[C@H](Cc2ccccc2)C(=O)N[C@@H](C(=O)O)Cc2ccc(cc2)N1 [Compound 112] ([d(hPhe)][Phe(2,4-Cl2)][dF][dPhe(4-NH2)]-OH; linker N-4 via Suc)",< 10,–,< 10,–,–,–,–
O=C1CCC(=O)N[C@H](CCc2ccccc2)C(=O)N[C@@H](Cc2ccc(-c3ccc(Cl)cc3)cc2)C(=O)N[C@H](Cc2ccccc2)C(=O)N[C@H](C(=O)O)Cc2ccc(cc2)N1 [Compound 116] ([d(hPhe)][Bip(4'-Cl)][dF][Phe(4-NH2)]-OH; linker N-4 via Suc),< 10,10 to 50,< 10,–,–,–,–
O=C1CCC(=O)N[C@H](CCc2ccccc2)C(=O)N[C@@H](Cc2ccc(-c3ccccc3)cc2)C(=O)N[C@H](Cc2ccccc2)C(=O)N[C@H](C(=O)O)Cc2ccc(cc2)N1 [Compound 117] ([d(hPhe)][Bip][dF][Phe(4-NH2)]-OH; linker N-4 via Suc),< 10,< 10,50 to 80,–,–,–,–
O=C1CCC(=O)N[C@H](Cc2ccc(C(F)(F)F)cc2)C(=O)N[C@@H](Cc2ccc(-c3ccccc3)cc2)C(=O)N[C@H](Cc2ccccc2)C(=O)N[C@H](C(=O)O)Cc2ccc(cc2)N1 [Compound 118] ([dPhe(4-CF3)][Bip][dF][Phe(4-NH2)]-OH; linker N-4 via Suc),10 to 30,–,10 to 50,–,–,–,–
O=C1COc2ccc(cc2)C[C@@H](C(=O)N[C@@H](Cc2ccccc2)C(=O)O)NC(=O)[C@@H](CCc2ccc(C(F)(F)F)cc2)NC(=O)[C@H](Cc2ccccc2)NC(=O)[C@@H](Cc2ccc(C(F)(F)F)cc2)N1 [Compound 157],< 10,10 to 50,50 to 80,–,–,–,–
O=C1COc2ccc(cc2)C[C@@H](C(=O)N[C@@H](Cc2ccccc2)C(=O)O)NC(=O)[C@@H](CCc2ccccc2)NC(=O)[C@H](Cc2ccc(-c3ccccc3)cc2)NC(=O)[C@@H](CCc2ccccc2)N1 [Compound 158],–,–,–,–,< 10,50 to 80,50 to 80
O=C(O)[C@@H]1Cc2ccc(cc2)NC(=O)[C@H](O)[C@@H](O)C(=O)N[C@H](Cc2cccs2)C(=O)N[C@@H](Cc2ccc(-c3ccc(Cl)cc3)cc2)C(=O)N[C@H](Cc2ccccc2)C(=O)N1 [Compound 180],< 10,< 10,< 10,–,–,–,–
O=C1CCC(=O)N[C@H](Cc2cccs2)C(=O)N[C@H](Cc2ccc(-c3ccccc3)cc2)C(=O)N[C@H](Cc2ccccc2)C(=O)N[C@H](C(=O)O)Cc2ccc(cc2)N1 [Compound 194] ([d2Thi][dBip][dF][Phe(4-NH2)]-OH; linker N-4 via Suc),> 100,–,–,< 10,–,–,–
O=C1CCC(=O)N[C@H](Cc2cccs2)C(=O)N[C@@H](Cc2ccc(-c3ccccc3)cc2)C(=O)N[C@H](Cc2ccccc2)C(=O)N[C@@H](C(=O)O)Cc2ccc(cc2)N1 [Compound 196] ([d2Thi][Bip][dF][dPhe(4-NH2)]-OH; linker N-4 via Suc),< 10,–,–,< 10,–,–,–
O=C1CCC(=O)N[C@H](Cc2cccs2)C(=O)N[C@@H](Cc2ccc(-c3ccccc3)cc2)C(=O)N[C@H](Cc2ccccc2)C(=O)N[C@@H](C(=O)N[C@@H](Cc2ccccc2)C(=O)O)Cc2ccc(cc2)N1 [Compound 198] ([d2Thi][Bip][dF][dPhe(4-NH2)]F-OH; linker N-4 via Suc),< 10,–,–,50 to 80,–,–,–
O=C1CCC(=O)N[C@H](Cc2cccs2)C(=O)N[C@@H](Cc2ccc(Br)cc2)C(=O)N[C@H](Cc2ccccc2)C(=O)N[C@H](C(=O)N[C@@H](Cc2ccccc2)C(=O)O)Cc2ccc(cc2)N1 [Compound 201] ([d2Thi][Phe(4-Br)][dF][Phe(4-NH2)]F-OH; linker N-4 via Suc),< 10,–,10 to 50,–,–,–,–
O=C1COc2ccc(cc2)C[C@@H](C(=O)O)NC(=O)[C@H](Cc2ccccc2)NC(=O)[C@H](Cc2ccc(-c3ccccc3)cc2)NC(=O)[C@H](Cc2cccs2)N1 [Compound 212],< 10,–,–,–,–,< 10,< 10

# — patent US8338565B2, “Macrocyclic compounds for inhibition of tumor necrosis factor alpha” (Ensemble Therapeutics Corporation, priority 2008, dated 2012)
